The target in experiment [1] is T1, human mAChR M1 (Homo sapiens, UniProt P11229).
T1 sequence (P11229 1-460): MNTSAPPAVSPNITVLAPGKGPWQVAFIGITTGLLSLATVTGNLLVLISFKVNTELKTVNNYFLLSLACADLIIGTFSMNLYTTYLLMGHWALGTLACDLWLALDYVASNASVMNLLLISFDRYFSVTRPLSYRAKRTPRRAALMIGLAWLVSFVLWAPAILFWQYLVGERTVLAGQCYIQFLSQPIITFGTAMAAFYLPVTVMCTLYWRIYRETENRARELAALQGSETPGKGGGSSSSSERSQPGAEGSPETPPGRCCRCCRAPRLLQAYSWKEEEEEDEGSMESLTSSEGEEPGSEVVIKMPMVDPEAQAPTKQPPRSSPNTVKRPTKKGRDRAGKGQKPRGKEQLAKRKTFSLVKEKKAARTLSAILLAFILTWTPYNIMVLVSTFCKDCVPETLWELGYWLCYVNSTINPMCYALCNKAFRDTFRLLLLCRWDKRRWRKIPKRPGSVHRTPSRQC
Description: mAChR M1 cell-based functional assay (calcium mobilization), PAM activity: increase in the EC20 acetylcholine response. To be noted: CHO-K1 cells expressing hM1; calcium flux (Fluo-4); potentiation of EC20 acetylcholine response. The source says: (§1) Chinese hamster ovary (CHO-K1) cells stably expressing rat (r)M1 were purchased from the American Type Culture Collection and cultured according to their indicated protocol. CHO cells stably expressing human (h)M2, hM3, and hM5 were described previously (Levey, et al., 1991); hM1 and hM4 cDNAs were purchased from Missouri S&T cDNA Resource; rM4 cDNA was provided by T. I. Bonner (National Institutes of Health, Bethesda, Md.). rM2 and rM3 were cloned from a rat brain cDNA library and sequence verified. hM1, rM2, rM3, hM4, and rM4 cDNAs were used to stably transfect CHO-K1 cells purchased from the American Type Culture Collection using Lipofectamine2000. To make stable rM2, hM2, rM3, hM4, and rM4 cell lines for use in calcium mobilization assays, these cells also were stably transfected with a chimeric G-protein (Gqi5) (provided by B. R. Conklin, University of California, San Francisco) using Lipofectamine 2000. rM1, hM1, rM3, hM3, rM5, and hM5 cells were grown in Ham's F-12 medium containing 10% heat-inactivated fetal bovine serum (FBS), 20 mM HEPES, and 50 μg/mL G418 sulfate. rM2-Gqi5, hM2-Gqi5, and hM4-Gqi5 cells were grown in the same medium also containing 500 μg/mL Hygromycin B. Stable rM4-Gqi5 cells were grown in DMEM containing 10% heat-inactivated FBS, 20 mM HEPES, 400 μg/mL G418 sulfate, and 500 μg/mL Hygromycin B.
(§2) For high throughput measurement of agonist-evoked increases in intracellular calcium, CHO-K1 cells stably expressing muscarinic receptors were plated in growth medium lacking G418 and hygromycin at 15,000 cells/20 μL/well in Greiner 384-well black-walled, tissue culture (TC)-treated, clear-bottom plates (VWR). Cells were incubated overnight at 37° C. and 5% CO2. The next day, cells were washed using an ELX 405 (BioTek) with four washes (80 μL) of assay buffer then aspirated to 20 μL. Next, 20 μL of 16 μM Fluo-4/acetoxymethyl ester (Invitrogen, Carlsbad, Calif.) prepared as a 2.3 mM stock in DMSO and mixed in a 1:1 ratio with 10% (w/v) Pluronic F-127 and diluted in assay buffer was added to the wells and the cell plates were incubated for 50 min at 37° C. and 5% CO2. Dye was removed by washing with the ELX 405 (four 80 μL washes of assay buffer) then aspirated to 20 μL. Compound master plates were formatted in an 11 point CRC format (1:3 dilutions) in 100% DMSO with a starting concentration of 10 mM using the BRAVO liquid handler (Agilent). Test compound CRCs were then transferred to daughter plates (240 nL) using the Echo acoustic plate reformatter (Labcyte, Sunnyvale, Calif.) and then diluted into assay buffer (40 μL) to a 2× stock using a Thermo Fisher Combi (Thermo Fisher Scientific, Waltham, Mass.).
(§3) Calcium flux was measured using the Functional Drug Screening System (FDSS) 6000 (Hamamatsu Corporation, Tokyo, Japan) as an increase in the fluorescent static ratio. Compounds were applied to cells (20 μL, 2×) using the automated system of the FDSS 6000 at 4 s into the 300 s protocol and the data were collected at 1 Hz. At 144 s into the 300 s protocol, 10 μL of an EC20 concentration of the muscarinic receptor agonist acetylcholine was added (5×), followed by the addition of 12 μL an EC80 concentration of acetylcholine at the 230 s time point (5×). Agonist activity was analyzed as a concentration-dependent increase in calcium mobilization upon compound addition. Emax values for agonist activity are expressed relative to the maximum for acetylcholine. Positive allosteric modulator activity was analyzed as a concentration-dependent increase in the EC20 acetylcholine response. Antagonist activity was analyzed as a concentration-dependent decrease in the EC80 acetylcholine response. Concentration-response curves were generated using a four-parameter logistical equation in XLfit curve fitting software (IDBS, Bridgewater, N.J.) for Excel (Microsoft, Redmond, Wash.) or Prism (GraphPad Software, Inc., San Diego, Calif.).
Background: Calcium flux is commonly read through the fluorescence of an indicator in the cells.

The target of experiment [2] is T1, human mAChR M1. Description: mAChR M1 cell-based functional assay (calcium mobilization), agonist activity upon compound addition alone. To be noted: CHO-K1 cells expressing hM1; for EC50: calcium mobilization upon compound addition, no acetylcholine; for Emax: compound alone, relative to the maximum for acetylcholine.
Description: as §1, §2, §3

Results on 15 molecules are retold here after patent publication US11851406B2, “Positive allosteric modulators of the muscarinic acetylcholine receptor M1” (Vanderbilt University, priority 2018, dated 2023).

Bounds are passed on as bounds.

Turning to `Cn1ccc(-c2ccc(Cc3cc(C(=O)NC4CC5(COC5)C4)nc(-c4ccn(C)n4)c3)cc2)n1` [Compound 36, 6-(1-methyl-1H-pyrazol-3-yl)-4-(4-(1-methyl-1H-pyrazol-3-yl)benzyl)-N-(2-oxaspiro[3.3]heptan-6-yl)picolinamide], on human mAChR M1 [1], the EC50 turned out to be 3.71 µM and the Emax stood at 38%. For the same molecule, at human mAChR M1 [2], the EC50 was greater than 10 µM and the Emax was less than 5%.
Regarding `Cc1ccc(Cc2cc(C(=O)N[C@H]3CCCC[C@@H]3O)nc(-c3ccn(C)n3)c2C)cn1` [Compound 66, N-((1S,2S)-2-hydroxycyclohexyl)-5-methyl-6-(1-methyl-1H-pyrazol-3-yl)-4-((6-methylpyridin-3-yl)methyl)picolinamide], on human mAChR M1 [1], the Emax worked out at 66%. Besides, at human mAChR M1 [2], the EC50 was greater than 10 µM and the Emax is less than 5%.
On to `Cn1cc(-c2ccc(Cc3cc(C(=O)NC4CC5(COC5)C4)nc(-n4cccn4)c3)cn2)cn1` [Compound 21, 4-((6-(1-methyl-1H-pyrazol-4-yl)pyridin-3-yl)methyl)-6-(1H-pyrazol-1-yl)-N-(2-oxaspiro[3.3]heptan-6-yl)picolinamide], for which the Emax on human mAChR M1 [1] was 40%; on human mAChR M1 [2], less than 5%. In addition, the EC50 on human mAChR M1 [2] was greater than 10 µM.
As for `Cc1c(Cc2ccc(-c3ccn(C)n3)nc2)cc(C(=O)N[C@H]2CCC[C@@H]2O)nc1-n1cccn1` [Compound 52, N-((1S,2S)-2-hydroxycyclopentyl)-5-methyl-4-((6-(1-methyl-1H-pyrazol-3-yl)pyridin-3-yl)methyl)-6-(1H-pyrazol-1-yl)picolinamide], at human mAChR M1 [1], the EC50 was found to be 5.03 µM and the Emax was determined as 84%. For the same molecule, on human mAChR M1 [2], the EC50 is greater than 10 µM and the Emax turned out to be 9%.
With `Cc1c(Cc2ccc(-c3ccn(C)n3)cc2)cc(C(=O)NC[C@H]2CCCO2)nc1-c1ccn(C)n1` [Compound 16, (R)-5-methyl-6-(1-methyl-1H-pyrazol-3-yl)-4-(4-(1-methyl-1H-pyrazol-3-yl)benzyl)-N-((tetrahydrofuran-2-yl)methyl)picolinamide], on human mAChR M1 [1], the Emax is 62%. Further, on human mAChR M1 [2], the EC50 was greater than 10 µM and the Emax was less than 5%.
For the molecule `Cc1c(Cc2ccc(-c3ccn(C)n3)cc2)cc(C(=O)N[C@H]2CCCC[C@@H]2O)nc1-c1ccn(C)n1` [Compound 10, N-((1S,2S)-2-hydroxycyclohexyl)-5-methyl-6-(1-methyl-1H-pyrazol-3-yl)-4-(4-(1-methyl-1H-pyrazol-3-yl)benzyl)picolinamide], on human mAChR M1 [1], the EC50 came out at 0.91 µM and the Emax was found to be 86%. Also, at human mAChR M1 [2], the EC50 was no less than 10 µM and the Emax is 13%.
The like results for `Cc1nc(-c2ccc(Cc3cc(C(=O)N[C@H]4CCC[C@@H]4O)nc(-n4cccn4)c3C)cc2)co1` [Compound 54, N-((1S,2S)-2-hydroxycyclopentyl)-5-methyl-4-(4-(2-methyloxazol-4-yl)benzyl)-6-(1H-pyrazol-1-yl)picolinamide] were, in that order, 3.87 µM, 52%, greater than 10 µM and less than 5%.
In the case of `Cc1c(Cc2ccc(-c3ccn(C)n3)cc2)cc(C(=O)NC2CCOCC2)nc1-n1cccn1` [Compound 42, 5-methyl-4-(4-(1-methyl-1H-pyrazol-3-yl)benzyl)-6-(1H-pyrazol-1-yl)-N-(tetrahydro-2H-pyran-4-yl)picolinamide], the Emax was 83% at human mAChR M1 [1] and less than 5% on human mAChR M1 [2]. At human mAChR M1 [2], the EC50 was greater than 10 µM.
As for `Cc1nc(-c2ccc(Cc3cc(C(=O)N[C@H]4CCC[C@@H]4O)nc(-n4cccn4)c3)cc2)co1` [Compound 24, N-((1S,2S)-2-hydroxycyclopentyl)-4-(4-(2-methyloxazol-4-yl)benzyl)-6-(1H-pyrazol-1-yl)picolinamide], the values for the EC50 at human mAChR M1 [1] and on human mAChR M1 [2] were 4.91 µM and greater than 10 µM, respectively. Besides, the Emax on human mAChR M1 [1] was 78%; at human mAChR M1 [2], less than 5%.
The like results for `Cn1ccc(-c2ccc(Cc3cc(C(=O)N[C@H]4CCOC[C@@H]4O)nc(-n4cccn4)c3)cc2)n1` [Compound 28, N-((3R,4S)-3-hydroxytetrahydro-2H-pyran-4-yl)-4-(4-(1-methyl-1H-pyrazol-3-yl)benzyl)-6-(1H-pyrazol-1-yl)picolinamide] were, in that order, 1.07 µM, greater than 10 µM, 78% and 7%.
On to `Cc1c(Cc2ccc(-n3cccn3)cc2)cc(C(=O)N[C@H]2CCC[C@@H]2O)nc1-c1ccn(C)n1` [Compound 59, 4-(4-(1H-pyrazol-1-yl)benzyl)-N-((1S,2S)-2-hydroxycyclopentyl)-5-methyl-6-(1-methyl-1H-pyrazol-3-yl)picolinamide], for which the EC50 at human mAChR M1 [1] was 1.98 µM; at human mAChR M1 [2], greater than 10 µM. The Emax on human mAChR M1 [1] was 85%; at human mAChR M1 [2], less than 5%.
With `Cn1cc(-c2ccc(Cc3cc(C(=O)N[C@H]4CCCC[C@@H]4O)nc(-c4ccn(C)n4)c3)cn2)cn1` [Compound 3, N-((1S,2S)-2-hydroxycyclohexyl)-6-(1-methyl-1H-pyrazol-3-yl)-4-((6-(1-methyl-1H-pyrazol-4-yl)pyridin-3-yl)methyl)picolinamide], at human mAChR M1 [1], the EC50 turned out to be 4 µM and the Emax was 90%. On human mAChR M1 [2], the EC50 was greater than 10 µM and the Emax was less than 5%.
For `Cc1c(Cc2ccc(-c3ccn(C)n3)cc2)cc(C(=O)NCC2CCOCC2)nc1-c1ccn(C)n1` [Compound 14, 5-methyl-6-(1-methyl-1H-pyrazol-3-yl)-4-(4-(1-methyl-1H-pyrazol-3-yl)benzyl)-N-((tetrahydro-2H-pyran-4-yl)methyl)picolinamide], the Emax on human mAChR M1 [1] turned out to be 74%. Further, on human mAChR M1 [2], the EC50 was greater than 10 µM and the Emax is less than 5%.
Consider `Cn1ccc(-c2ccc(Cc3cc(C(=O)N[C@H]4CC[C@@H]4O)nc(-n4cccn4)c3)cc2)n1` [Compound 32, N-((1S,2S)-2-hydroxycyclobutyl)-4-(4-(1-methyl-1H-pyrazol-3-yl)benzyl)-6-(1H-pyrazol-1-yl)picolinamide], for which the Emax at human mAChR M1 [1] amounted to 46%. In addition, at human mAChR M1 [2], the EC50 is greater than 10 µM and the Emax is less than 5%.
The matching figures for `Cc1c(Cc2ccc(-c3ccn(C)n3)nc2)cc(C(=O)NC2CCOCC2)nc1-n1cccn1` [Compound 49, 5-methyl-4-((6-(1-methyl-1H-pyrazol-3-yl)pyridin-3-yl)methyl)-6-(1H-pyrazol-1-yl)-N-(tetrahydro-2H-pyran-4-yl)picolinamide]: 63%, greater than 10 µM and less than 5%.

By EC50 is commonly meant the midpoint of the concentration-response curve. Broadly, the Emax is the maximal effect, on the per cent scale that the assay sets.
